# Results from ChEMBL document CHEMBL2331144, “Synthesis and anticancer activity of analogues of phenstatin, with a phenothiazine A-ring, as a new class of microtubule-targeting agents” (Bioorg Med Chem Lett, 2013).
# Assays:
# NCI-H522 = test: Growth inhibition of human NCI-H522 cells after 48 hrs by sulforhodamine B assay; format: functional; conditions: NCI-H522, 48 h
# COLO 205 = test: Growth inhibition of human COLO205 cells after 48 hrs by sulforhodamine B assay; format: functional; conditions: COLO 205, 48 h
# NCI-H460 = test: Growth inhibition of human NCI-H460 cells after 48 hrs by sulforhodamine B assay; format: functional; conditions: NCI-H460, 48 h
# NCI-H23 = test: Growth inhibition of human NCI-H23 cells after 48 hrs by sulforhodamine B assay; format: functional; conditions: NCI-H23, 48 h
# HOP-62 = test: Growth inhibition of human HOP62 cells after 48 hrs by sulforhodamine B assay; format: functional; conditions: HOP-62, 48 h
# HOP-92 = test: Growth inhibition of human HOP92 cells after 48 hrs by sulforhodamine B assay; format: functional; conditions: HOP-92, 48 h
# [1] = Growth inhibition of human EKVX cells after 48 hrs by sulforhodamine B assay; format: functional
# A549 = test: Growth inhibition of human A549/ATCC cells after 48 hrs by sulforhodamine B assay; format: functional; conditions: A549, 48 h
# SR = test: Growth inhibition of human SR cells after 48 hrs by sulforhodamine B assay; format: functional
# RPMI-8226 = test: Growth inhibition of human RPMI8226 cells after 48 hrs by sulforhodamine B assay; format: functional; conditions: RPMI-8226, 48 h
# MOLT-4 = test: Growth inhibition of human MOLT4 cells after 48 hrs by sulforhodamine B assay; format: functional; conditions: MOLT-4, 48 h
# K562 = test: Growth inhibition of human K562 cells after 48 hrs by sulforhodamine B assay; format: functional; conditions: K562, 48 h
# HL-60(TB) = test: Growth inhibition of human HL-60(TB) cells after 48 hrs by sulforhodamine B assay; format: functional; conditions: HL-60, 48 h
# CCRF-CEM = test: Growth inhibition of human CCRF-CEM cells after 48 hrs by sulforhodamine B assay; format: functional
# [2] = Inhibition of sheep brain tubulin polymerization using DAPI by fluorimetry; set-up: species or system Ovis aries
# Ovis aries = species: Ovis aries; test: Inhibition of sheep brain tubulin polymerization at 100 uM using DAPI by fluorimetry
# T47D = test: Growth inhibition of human T47D cells after 48 hrs by sulforhodamine B assay; format: functional
# MDA-MB-468 = test: Growth inhibition of human MDA-MB-468 cells after 48 hrs by sulforhodamine B assay; format: functional; conditions: MDA-MB-468, 48 h
# BT-549 = test: Growth inhibition of human BT549 cells after 48 hrs by sulforhodamine B assay; format: functional; conditions: BT-549, 48 h
# [3] = Growth inhibition of human Hs 578T cells after 48 hrs by sulforhodamine B assay; format: functional
# MDA-MB-231 = test: Growth inhibition of human MDA-MB-231 cells after 48 hrs by sulforhodamine B assay; format: functional; conditions: MDA-MB-231, 48 h
# MCF7 = test: Growth inhibition of human MCF7 cells after 48 hrs by sulforhodamine B assay; format: functional; conditions: MCF7, 48 h
# SF-539 = test: Growth inhibition of human SF539 cells after 48 hrs by sulforhodamine B assay; format: functional; conditions: SF-539, 48 h
# SNB-75 = test: Growth inhibition of human SNB75 cells after 48 hrs by sulforhodamine B assay; format: functional; conditions: SNB-75, 48 h
# SF-295 = test: Growth inhibition of human SF295 cells after 48 hrs by sulforhodamine B assay; format: functional; conditions: SF-295, 48 h
# SF-268 = test: Growth inhibition of human SF268 cells after 48 hrs by sulforhodamine B assay; format: functional; conditions: SF-268, 48 h
# PC-3 = test: Growth inhibition of human PC3 cells after 48 hrs by sulforhodamine B assay; format: functional; conditions: PC-3, 48 h
# TK-10 = test: Growth inhibition of human TK10 cells after 48 hrs by sulforhodamine B assay; format: functional; conditions: TK-10, 48 h
# DU-145 = test: Growth inhibition of human DU145 cells after 48 hrs by sulforhodamine B assay; format: functional; conditions: DU-145, 48 h
# ACHN = test: Growth inhibition of human ACHN cells after 48 hrs by sulforhodamine B assay; format: functional
# 786-0 = test: Growth inhibition of human 786-0 cells after 48 hrs by sulforhodamine B assay; format: functional; conditions: 786-0, 48 h
# UO-31 = test: Growth inhibition of human UO31 cells after 48 hrs by sulforhodamine B assay; format: functional; conditions: UO-31, 48 h
# RXF 393 = test: Growth inhibition of human RXF393 cells after 48 hrs by sulforhodamine B assay; format: functional; conditions: RXF 393, 48 h
# SN12C = test: Growth inhibition of human SN12C cells after 48 hrs by sulforhodamine B assay; format: functional
# CAKI-1 = test: Growth inhibition of human CAKI-1 cells after 48 hrs by sulforhodamine B assay; format: functional; conditions: CAKI-1, 48 h
# A498 = test: Growth inhibition of human A498 cells after 48 hrs by sulforhodamine B assay; format: functional; conditions: A498, 48 h
# IGROV-1 = test: Growth inhibition of human IGROV1 cells after 48 hrs by sulforhodamine B assay; format: functional; conditions: IGROV-1, 48 h
# SK-OV-3 = test: Growth inhibition of human SKOV3 cells after 48 hrs by sulforhodamine B assay; format: functional; conditions: SK-OV-3, 48 h
# [4] = Growth inhibition of human NCI-ADR-RES cells after 48 hrs by sulforhodamine B assay; format: functional
# OVCAR-8 = test: Growth inhibition of human OVCAR8 cells after 48 hrs by sulforhodamine B assay; format: functional; conditions: OVCAR-8, 48 h
# OVCAR-5 = test: Growth inhibition of human OVCAR5 cells after 48 hrs by sulforhodamine B assay; format: functional; conditions: OVCAR-5, 48 h
# OVCAR-4 = test: Growth inhibition of human OVCAR4 cells after 48 hrs by sulforhodamine B assay; format: functional; conditions: OVCAR-4, 48 h
# OVCAR-3 = test: Growth inhibition of human OVCAR3 cells after 48 hrs by sulforhodamine B assay; format: functional; conditions: OVCAR-3, 48 h
# SK-MEL-5 = test: Growth inhibition of human SK-MEL-5 cells after 48 hrs by sulforhodamine B assay; format: functional; conditions: SK-MEL-5, 48 h
# UACC-257 = test: Growth inhibition of human UACC257 cells after 48 hrs by sulforhodamine B assay; format: functional; conditions: UACC-257, 48 h
# Malme-3M = test: Growth inhibition of human MALME-3M cells after 48 hrs by sulforhodamine B assay; format: functional
# LOX IMVI = test: Growth inhibition of human LOXIMVI cells after 48 hrs by sulforhodamine B assay; format: functional
# UACC-62 = test: Growth inhibition of human UACC62 cells after 48 hrs by sulforhodamine B assay; format: functional; conditions: UACC-62, 48 h
# SK-MEL-28 = test: Growth inhibition of human SK-MEL-28 cells after 48 hrs by sulforhodamine B assay; format: functional; conditions: SK-MEL-28, 48 h
# SK-MEL-2 = test: Growth inhibition of human SK-MEL-2 cells after 48 hrs by sulforhodamine B assay; format: functional; conditions: SK-MEL-2, 48 h
# MDA-MB-435 = test: Growth inhibition of human MDA-MB-435 cells after 48 hrs by sulforhodamine B assay; format: functional; conditions: MDA-MB-435, 48 h
# M14 = test: Growth inhibition of human M14 cells after 48 hrs by sulforhodamine B assay; format: functional; conditions: M14, 48 h
# SW-620 = test: Growth inhibition of human SW620 cells after 48 hrs by sulforhodamine B assay; format: functional; conditions: SW-620, 48 h
# KM12 = test: Growth inhibition of human KM12 cells after 48 hrs by sulforhodamine B assay; format: functional; conditions: KM12, 48 h
# HT-29 = test: Growth inhibition of human HT-29 cells after 48 hrs by sulforhodamine B assay; format: functional; conditions: HT-29, 48 h
# HCT-116 = test: Growth inhibition of human HCT116 cells after 48 hrs by sulforhodamine B assay; format: functional; conditions: HCT-116, 48 h
# HCT-15 = test: Growth inhibition of human HCT15 cells after 48 hrs by sulforhodamine B assay; format: functional; conditions: HCT-15, 48 h
# [5] = Growth inhibition of human HCC2998 cells after 48 hrs by sulforhodamine B assay; format: functional; conditions: HCC 2998, 48 h
smiles,measurement,setting,value
COc1ccc(C(=O)N2c3ccccc3Sc3ccccc32)cc1F,GI50,NCI-H522,0.102 µM
same,GI50,COLO 205,0.244 µM
same,GI50,NCI-H460,0.372 µM
same,GI50,NCI-H23,0.393 µM
same,GI50,HOP-62,0.539 µM
same,GI50,HOP-92,0.209 µM
same,GI50,[1],0.964 µM
same,GI50,A549,0.382 µM
same,GI50,SR,0.271 µM
same,GI50,RPMI-8226,0.259 µM
same,GI50,MOLT-4,0.442 µM
same,GI50,K562,0.143 µM
same,GI50,HL-60(TB),0.267 µM
same,GI50,CCRF-CEM,0.3 µM
same,IC50,[2],9.48 µM
same,inhibition,Ovis aries,95%
same,GI50,T47D,0.468 µM
same,GI50,MDA-MB-468,0.249 µM
same,GI50,BT-549,0.604 µM
same,GI50,[3],0.285 µM
same,GI50,MDA-MB-231,0.57 µM
same,GI50,MCF7,0.316 µM
same,GI50,SF-539,0.29 µM
same,GI50,SNB-75,0.222 µM
same,GI50,SF-295,0.229 µM
same,GI50,SF-268,0.819 µM
same,GI50,PC-3,0.419 µM
same,GI50,TK-10,0.586 µM
same,GI50,DU-145,0.303 µM
same,GI50,ACHN,1.89 µM
same,GI50,786-0,0.59 µM
same,GI50,UO-31,2.22 µM
same,GI50,RXF 393,0.272 µM
same,GI50,SN12C,0.76 µM
same,GI50,CAKI-1,0.561 µM
same,GI50,A498,0.211 µM
same,GI50,IGROV-1,0.572 µM
same,GI50,SK-OV-3,0.322 µM
same,GI50,[4],0.112 µM
same,GI50,OVCAR-8,0.384 µM
same,GI50,OVCAR-5,0.522 µM
same,GI50,OVCAR-4,6.56 µM
same,GI50,OVCAR-3,0.312 µM
same,GI50,SK-MEL-5,0.335 µM
same,GI50,UACC-257,0.671 µM
same,GI50,Malme-3M,0.991 µM
same,GI50,LOX IMVI,0.59 µM
same,GI50,UACC-62,0.518 µM
same,GI50,SK-MEL-28,0.543 µM
same,GI50,SK-MEL-2,0.355 µM
same,GI50,MDA-MB-435,0.035 µM
same,GI50,M14,0.216 µM
same,GI50,SW-620,0.358 µM
same,GI50,KM12,0.239 µM
same,GI50,HT-29,0.251 µM
same,GI50,HCT-116,0.375 µM
same,GI50,HCT-15,0.405 µM
same,GI50,[5],0.314 µM
O=C(c1ccc2c(c1)Sc1ccccc1N2)c1c[nH]c2ccccc12,GI50,NCI-H522,0.248 µM
same,GI50,COLO 205,0.435 µM
same,GI50,NCI-H460,0.429 µM
same,GI50,NCI-H23,0.943 µM
same,GI50,HOP-62,0.67 µM
same,GI50,HOP-92,0.97 µM
same,GI50,[1],11.6 µM
same,GI50,A549,0.634 µM
same,GI50,SR,0.382 µM
same,GI50,RPMI-8226,0.761 µM
same,GI50,MOLT-4,3.75 µM
same,GI50,K562,0.395 µM
same,GI50,HL-60(TB),0.382 µM
same,GI50,CCRF-CEM,0.38 µM
same,IC50,[2],38.9 µM
same,inhibition,Ovis aries,66%
same,GI50,T47D,0.502 µM
same,GI50,MDA-MB-468,0.314 µM
same,GI50,BT-549,0.398 µM
same,GI50,[3],0.702 µM
same,GI50,MDA-MB-231,1.11 µM
same,GI50,MCF7,0.293 µM
same,GI50,SF-539,0.576 µM
same,GI50,SNB-75,0.326 µM
same,GI50,SF-295,0.323 µM
same,GI50,SF-268,1.5 µM
same,GI50,PC-3,0.654 µM
same,GI50,TK-10,2.14 µM
same,GI50,DU-145,1.42 µM
same,GI50,ACHN,1.78 µM
same,GI50,786-0,1.9 µM
same,GI50,UO-31,1.03 µM
same,GI50,RXF 393,1.27 µM
same,GI50,SN12C,0.888 µM
same,GI50,CAKI-1,0.462 µM
same,GI50,A498,0.251 µM
same,GI50,IGROV-1,0.62 µM
same,GI50,SK-OV-3,0.533 µM
same,GI50,[4],0.247 µM
same,GI50,OVCAR-8,1.04 µM
same,GI50,OVCAR-5,1.75 µM
same,GI50,OVCAR-4,16.5 µM
same,GI50,OVCAR-3,0.404 µM
same,GI50,SK-MEL-5,0.408 µM
same,GI50,UACC-257,0.581 µM
same,GI50,Malme-3M,0.997 µM
same,GI50,LOX IMVI,0.446 µM
same,GI50,UACC-62,0.532 µM
same,GI50,SK-MEL-28,0.647 µM
same,GI50,SK-MEL-2,0.397 µM
same,GI50,MDA-MB-435,0.112 µM
same,GI50,M14,0.372 µM
same,GI50,SW-620,0.406 µM
same,GI50,KM12,0.365 µM
same,GI50,HT-29,0.368 µM
same,GI50,HCT-116,0.404 µM
same,GI50,HCT-15,0.489 µM
same,GI50,[5],0.976 µM
